Results on 16 molecules are retold here after patent US5332740A, “DC-89 derivatives” (priority 1990, dated 1994).

Molecules are shown by their SMILES.

For one series, the system named is various bacteria. The note with it: against various bacteria; cited from earlier work.
The test system of another series is melanoma B-16. The settings on record: against melanoma B-16; cited from earlier work.
The subject of another series is Sarcoma 180 tumor. The series is described as follows: Therapeutic Effect against Sarcoma 180 Tumor. It counts as in vivo, male ddY-strain mice. The note with it: single intravenous, average tumor volume treated/control, seven days after implantation. As to the method:
Therapeutic Effect against Sarcoma 180 Tumor
Five male ddY-strain mice each having a weight of 18 to 20 g were used for each group as test animals, and 5×10^5 Sarcoma 180 tumor cells were implanted subcutaneously into the animals at the axilla. One day after the implantation, 0.2 ml of physiological saline containing Compound (I) at the concentration indicated in Table 3 was intravenously administered to each mouse. T/C [T: average tumor volume (mm^3) of the group treated with the test compound, C: that of the control group which received an intravenous administration of 0.2 ml of physiological saline] was determined seven days after the implantation.

In the next series the test system is ddY-strain male mice. The series is described as follows: Acute Toxicity Test. It counts as in vivo. The settings on record: intraperitoneal; mortality observed for 14 days after the administration. Here is the method: A test compound was intraperitoneally administered to ddY-strain male mice each weighing 20±1 g. MLD (the minimum lethal dose) was determined by observing the mortality for 14 days after the administration.

With `COC(=O)C1(C)NC2=C(C1=O)C13CC1CN(C(=O)c1cc4cc(OC)c(OC)c(OC)c4[nH]1)C3=CC2=O` (stereo not shown) [DC-88A], the antibacterial activity result in the series with various bacteria is on record as “shows an antibacterial activity against a variety of bacteria”. Moreover, the anti-tumor activity entry in the series with melanoma B-16 is recorded as “exhibits an anti-tumor activity against melanoma B-16”. As to `COC(=O)C1(C)Nc2c(O)cc3c(c2C1=O)C(CBr)CN3C(=O)c1cc2cc(OC)c(OC)c(OC)c2[nH]1` (stereo not shown) [DC-89B2], the antibacterial activity result in the series with various bacteria is listed as “exhibit an antibacterial activity against various bacteria”. Further, the anti-tumor activity entry with melanoma B-16 was “show an anti-tumor activity against melanoma B-16”. As for `COC(=O)C1(C)Nc2c(O)cc3c(c2C1=O)CC(Br)CN3C(=O)c1cc2cc(OC)c(OC)c(OC)c2[nH]1` (stereo not shown) [DC-89B1], the antibacterial activity result in the series with various bacteria is reported as “exhibit an antibacterial activity against various bacteria”. Besides, in the series on melanoma B-16, the anti-tumor activity result is recorded as “show an anti-tumor activity against melanoma B-16”. With `COC(=O)c1c(C)[nH]c2c(O[Si](C)(C)C(C)(C)C)cc3c(c12)CC(Br)CN3C(=O)c1cc2cc(OC)c(OC)c(OC)c2[nH]1` (stereo not shown) [Compound 7], the values for the T/C in the series with Sarcoma 180 tumor (dose 1.0 mg/kg) and in the series on Sarcoma 180 tumor (dose 2.0 mg/kg) were 0.13 and 0.025, respectively. The “Acute Toxicity (MLD), minimum lethal dose” value (“Acute Toxicity (MLD)” below) in the series with ddY-strain male mice is reported as 4.0 mg/kg. `COC(=O)C1(C)Nc2c(OC(=O)N3CCC(N4CCCCC4)CC3)cc3c(c2C1=O)CC(Br)CN3C(=O)c1cc2cc(OC)c(OC)c(OC)c2[nH]1` (stereo not shown) [Compound 5]: in the series with ddY-strain male mice, the “Acute Toxicity (MLD)” value is 2.0 mg/kg. On the same count and under the same terms, as for `COC(=O)C1(C)Nc2c(OC(=O)N3CCN(C)CC3)cc3c(c2C1=O)CC(Cl)CN3C(=O)c1cc2cc(OC)c(OC)c(OC)c2[nH]1` (stereo not shown) [Compound 14], the figure is over 16 mg/kg.

Take `COc1cc2cc(C(=O)N3CC(Br)Cc4c3cc(OC(=O)N(C)C)c3[nH]c(C)cc43)[nH]c2c(OC)c1OC` (stereo not shown) [Compound 9]: the T/C in the series on Sarcoma 180 tumor (dose 0.25 mg/kg) stood at 0.15; in the series on Sarcoma 180 tumor (dose 0.50 mg/kg), 0.068. Moreover, in the series on ddY-strain male mice, the “Acute Toxicity (MLD)” value came to 0.50 mg/kg.

On to `COc1cc2cc(C(=O)N3CC(Br)Cc4c3cc(O[Si](C)(C)C(C)(C)C)c3[nH]c(C)cc43)[nH]c2c(OC)c1OC` (stereo not shown) [Compound 8], for which, in the series with Sarcoma 180 tumor (dose 2.0 mg/kg), the T/C is 0.19. In the series with ddY-strain male mice, the “Acute Toxicity (MLD)” value is recorded as 8.0 mg/kg.

Consider `COC(=O)C1(C)Nc2c(OC(=O)N3CCN(CCN)CC3)cc3c(c2C1=O)CC(Br)CN3C(=O)c1cc2cc(OC)c(OC)c(OC)c2[nH]1` (stereo not shown) [Compound 4], for which the T/C in the series with Sarcoma 180 tumor (dose 1.0 mg/kg, 1 mg/kg) amounted to 0.047. The “Acute Toxicity (MLD)” value in the series with ddY-strain male mice is 2.0 mg/kg. With `COc1cc2cc(C(=O)N3CC(Cl)Cc4c3cc(O[Si](C)(C)C(C)(C)C)c3[nH]c(C)cc43)[nH]c2c(OC)c1OC` (stereo not shown) [Compound 11], in the series on ddY-strain male mice, the “Acute Toxicity (MLD)” value is over 8.0 mg/kg.

As to `COC(=O)c1c(C)[nH]c2c(O[Si](C)(C)C(C)(C)C)cc3c(c12)CC(Cl)CN3C(=O)c1cc2cc(OC)c(OC)c(OC)c2[nH]1` (stereo not shown) [Compound 10], in the series on ddY-strain male mice, the “Acute Toxicity (MLD)” value is given as over 8.0 mg/kg. With `COC(=O)C1(C)Nc2c(OC(=O)N3CCN(C)CC3)cc3c(c2C1=O)CC(Br)CN3C(=O)c1cc2cc(OC)c(OC)c(OC)c2[nH]1` (stereo not shown) [Compound 2], the T/C with Sarcoma 180 tumor (dose 1.0 mg/kg) is on record as 0.19; with Sarcoma 180 tumor (dose 2.0 mg/kg), 0.083. Moreover, the “Acute Toxicity (MLD)” value with ddY-strain male mice was 5.2 mg/kg. Take `COC(=O)C1(C)Nc2c(OC(=O)N3CCN(CCN)CC3)cc3c(c2C1=O)CC(Br)CN3C(=O)c1cc2cc(OC)c(OC)c(OC)c2[nH]1` (stereo not shown) [Compound 3]: the T/C in the series on Sarcoma 180 tumor (dose 0.50 mg/kg) is recorded as 0.25; in the series with Sarcoma 180 tumor (dose 1.0 mg/kg, 1 mg/kg), 0.094. In the series on ddY-strain male mice, the “Acute Toxicity (MLD)” value amounted to 2.0 mg/kg. With `COC(=O)C1(C)Nc2c(OC(=O)N3CCC(N4CCCCC4)CC3)cc3c(c2C1=O)CC(Br)CN3C(=O)c1cc2cc(OC)c(OC)c(OC)c2[nH]1` (stereo not shown) [Compound 6], the “Acute Toxicity (MLD)” value with ddY-strain male mice is on record as 4.0 mg/kg. In the case of `COC(=O)C1(C)Nc2c(O)cc3c(c2C1=O)CC(Cl)CN3C(=O)c1cc2cc(OC)c(OC)c(OC)c2[nH]1` (stereo not shown) [DC-89A1], the antibacterial activity entry in the series with various bacteria was “exhibit an antibacterial activity against various bacteria”. Besides, in the series with melanoma B-16, the anti-tumor activity entry was “show an anti-tumor activity against melanoma B-16”. In the case of `COC(=O)C1(C)Nc2c(O)cc3c(c2C1=O)C(CCl)CN3C(=O)c1cc2cc(OC)c(OC)c(OC)c2[nH]1` (stereo not shown) [DC-89A2], in the series with various bacteria, the antibacterial activity entry was “exhibit an antibacterial activity against various bacteria”. Moreover, the anti-tumor activity result in the series on melanoma B-16 is recorded as “show an anti-tumor activity against melanoma B-16”.
